Biological target: T1, Jack bean α-D-mannosidase (Canavalia ensiformis, UniProt C0HJB3)
T1 construct: purchased Sigma M7257
T1 sequence (C0HJB3 1-981): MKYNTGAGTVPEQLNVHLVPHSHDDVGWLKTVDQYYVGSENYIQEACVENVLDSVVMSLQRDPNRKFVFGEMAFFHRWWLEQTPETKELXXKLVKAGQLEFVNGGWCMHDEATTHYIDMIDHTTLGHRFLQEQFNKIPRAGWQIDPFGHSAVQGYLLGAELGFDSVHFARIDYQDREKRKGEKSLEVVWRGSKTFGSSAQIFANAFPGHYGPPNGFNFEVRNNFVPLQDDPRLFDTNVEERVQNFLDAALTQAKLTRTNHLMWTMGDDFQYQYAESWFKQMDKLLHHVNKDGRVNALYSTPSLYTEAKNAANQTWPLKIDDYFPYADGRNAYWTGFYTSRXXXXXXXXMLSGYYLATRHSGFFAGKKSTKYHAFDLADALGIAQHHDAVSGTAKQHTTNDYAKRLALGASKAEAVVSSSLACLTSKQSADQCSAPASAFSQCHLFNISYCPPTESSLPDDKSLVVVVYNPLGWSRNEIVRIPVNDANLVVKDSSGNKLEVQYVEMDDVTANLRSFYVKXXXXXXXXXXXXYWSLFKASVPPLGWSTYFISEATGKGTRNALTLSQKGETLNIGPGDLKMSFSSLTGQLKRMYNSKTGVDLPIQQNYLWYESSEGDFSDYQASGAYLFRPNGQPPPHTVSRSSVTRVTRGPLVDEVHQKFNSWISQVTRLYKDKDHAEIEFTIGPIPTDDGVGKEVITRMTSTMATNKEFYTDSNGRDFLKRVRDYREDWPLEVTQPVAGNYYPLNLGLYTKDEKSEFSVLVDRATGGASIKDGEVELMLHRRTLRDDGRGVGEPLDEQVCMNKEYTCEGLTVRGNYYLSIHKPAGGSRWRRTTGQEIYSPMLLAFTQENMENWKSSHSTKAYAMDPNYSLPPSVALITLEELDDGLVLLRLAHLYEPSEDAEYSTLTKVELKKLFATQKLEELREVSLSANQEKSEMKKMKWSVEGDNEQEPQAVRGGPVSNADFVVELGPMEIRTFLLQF
Assay: Jack bean α-D-mannosidase activity assay (PNP-α-D-mannopyranoside substrate)
Format: biochemical
Experimental: Fresh solutions had been prepared a day or so earlier of 0.2M Mcllvane buffer at pH 4.5 and 5 mM PNP-α-D-mannopyranoside (Sigma, N2127) in pH 4.5 buffer. Also prepared was a dilution of Jack bean α-D-mannosidase enzyme (Sigma, M7257, 22 Units/mg, 6.2 mg/ml.) at 0.6 Units/ml in pH 4.5 buffer.
The incubation mixture consisted of 10 μl enzyme solution, 10 μl of 1 mg/ml aqueous inhibitor solution and 50 μl of 5 mM substrate made up in buffer at the optimum pH for the enzyme. The reactions were stopped by addition of 70 μl 0.4M glycine (pH 10.4) during the exponential phase of the reaction, which had been determined at the beginning using uninhibited assays in which water replaced inhibitor. Final absorbances were read at 405 nm using a Versamax microplate reader (Molecular Devices). Assays were carried out in triplicate, and the values given are means of the three replicates per assay. Results were expressed as a percentage of uninhibited assays in which water replaced inhibitor.

SMILES: O[C@H]1[C@H]2[C@H](O)CCCN2C[C@H]1O [swainsonine]
- inhibition of the promoted activity (activity promoted by imino sugars with a mannose configuration): total inhibition
- promotion of the mannosidase (any concentration tested): does not cause promotion
- inhibition (swainsonine alone, or mixed with an equal concentration of the selected stimulating compound): 100%
